According to article PMC10011573, “Development of novel broad-spectrum antimicrobial lipopeptides derived from plantaricin NC8 β” (Scientific Reports, 2023):
Where two headings read alike, the source gives them in different places. Non-standard residues stand in square brackets, D forms with d. Residues, ends and D or L forms follow the SMILES beside them. No end group written: not given here. *: point of attachment. Heptanoyl = CCCCCCC(=O)*; Pentanoyl = CCCCC(=O)*

Columns and labels:
E. coli (K-12 MG1655) [1] = tested on: E. coli (K-12 MG1655)
[2] = tested on: S. aureus (ATCC 29213, MSSA); conditions: ATCC 29213, 20 h
[3] = Carboxyfluorescein release assay, bacterial liposome model; assay type: biochemical; conditions: 75:25 POPC:POPG liposomes, 25 µM lipid, 10 mM PBS pH 7.4, 10^–5–10^2 µM peptide, 60 min, fluorescence, Hill fit, n = 3; read-out: EC50 Bacterial (concentration that triggers 50% CF release)
How it was run: (§1)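 CF-loaded extruded 0.1 µm unilamellar liposomes: bacterial POPC:POPG 75:25, mammalian POPC:POPS:Chol 65:5:30. Liposomes at 25 µM lipid in PBS pH 7.4 incubated with peptide (10^–5–10^2 µM; n = 3), fluorescence read every 2.5 min for 1 h. Release normalized to 1% Triton X-100; EC50 from Hill-1 fit.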

[4] = Carboxyfluorescein release assay, mammalian liposome model; assay type: biochemical; conditions: 65:5:30 POPC:POPS:Chol. liposomes, 25 µM lipid, 10 mM PBS pH 7.4, 10^–5–10^2 µM peptide, 60 min, fluorescence, Hill fit, n = 3; read-out: EC50 Mammalial (concentration that triggers 50% CF release)
How it was run: as §1

[5] = Dynamic light scattering, critical aggregation concentration; assay type: physicochemical; conditions: DLS scattering intensity at 90°, 10 mM PBS pH 7.4, serial dilution 100 µM to 0.01 nM, 22 °C, average of 10 runs of 30 s; estimated
Description: Lipopeptide aggregation was evaluated on a ALV/CGS-8F Platform (ALV-GmbH, Langen, Germany) equipped with a […] He–Ne laser. Scattered light was collected at 90°. PBS (10 mM, pH 7.4) was chosen as buffer, and filtered with a 0.22 µm filter prior to use. The samples were prepared in a cylindrical glass cuvette immersed in refractive-index matching toluene. The peptides were serially diluted between 100 µM and 0.01 nM, sonicated for 1 min and incubated for 5 min at 22 °C and vortexed prior to measuring. The temperature was controlled throughout the experiment with the use of a circulating water bath. Data were analysed with ALV-Correlator (Version 3.0, ALV-GmbH, Langen, Germany) software, and the scattering intensity was obtained through an average of 10 consecutive 30 s runs.

human erythrocytes = assay: Hemolytic activity; assay type: cell-based; conditions: 15% suspension in PBS, 1 h, 37 °C, absorbance 540 nm, highest tested concentration 100 µM
Description: The hemolytic activity of the lipopeptides was investigated by collecting blood from healthy volunteers in heparinized vacutainers. Briefly, the blood was centrifuged at 600 × g for 5 min and the erythrocyte pellet was washed three times in PBS. The cells were then suspended in PBS and added to 96-well plates (15% erythrocyte suspension/well), containing the lipopeptides with two-fold serial dilution. The plates were incubated for 1 h at 37 °C followed by centrifugation for 5 min at 900×g and absorbance measurement of the supernatants at 540 nm. Hemolytic activity (%) was calculated by subtracting the negative control from all values and normalization against the positive control (0.5% Triton X-100), that was set to 100%. All experiments, each in duplicate, were repeated three times.

A. baumannii = conditions: 20 h
E. cloacae = conditions: 20 h
E. faecium = conditions: 20 h
K. pneumoniae = conditions: 20 h
P. aeruginosa = conditions: 20 h
S. aureus (ATCC 29213) = assay type: cell-based; conditions: ATCC 29213, 20 h
E. coli (K-12 MG1655) [6] = assay type: cell-based; conditions: K-12, 20 h
Description: The broth microdilution method was used to determine minimal inhibitory concentration (MIC) and minimal bactericidal concentration (MBC), in accordance with the EUCAST standards for the broth microdilution method. Two-fold serial dilutions of the lipopeptides were used, and the final concentrations ranged from 0.19 to 100 µM. In brief, two-fold serial dilutions of the lipopeptides were performed in a 96-well plate in PBS, with a final volume of 100 µl per well, after which 100 µl of LB-broth media containing approximately 5 × 10^5 CFU/ml of bacteria was added to each well. The plate was then incubated for 20 h in 37 °C on a shaker (400 rpm). The effect of lipopeptide-antibiotic combinations was investigated by performing checkerboard assays. The assays were performed in accordance with the MIC and MBC tests conducted above, but with horizontal and longitudinal two-fold serial dilutions of the tested compounds. […] The fractional inhibitory concentration (FIC) and fractional bactericidal concentration (FBC) were calculated by the equation (MIC or MBC of peptide in combination/MIC or MBC of peptide alone) + (MIC or MBC of antibiotic in combination/MIC or MBC of antibiotic alone). Synergy was defined as FIC/FBC ≤ 0.5, additive when 0.5 < FIC/FBC ≤ 1, indifferent when 1 < FIC/FBC < 2 and antagonistic when FIC/FBC ≥ 2. All experiments were repeated at least three times.

[7] = Table 3, K-12 MG1655, broth microdilution, 50:50 PBS/LB-broth, 200 µL, 20 h, 37 °C

Molecule | S. aureus MBC [2] [µM] | S. aureus MIC [2] [µM] | EC50 [3] [µM] | EC50 [4] [µM] | critical aggregation concentration (CAC) [5] [µM] | E. coli MBC (E. coli (K-12 MG1655) [1]; [7]) [µM] | E. coli MIC (E. coli (K-12 MG1655) [1]; [7]) [µM] | HC, hemolytic concentration at 5% hemolytic activity (human erythrocytes) [µM] | other results
LGIKILWSAYKHRKTI-NH2 [L-6] | > 100 | > 100 | 0.15 | > 100 | 10 | – | – | – | E. coli MBC (E. coli (K-12 MG1655) [1]; K-12, 20 h): > 100 µM; E. coli MIC (E. coli (K-12 MG1655) [1]; K-12, 20 h): > 100 µM
CCCCCCC(=O)N[C@@H](CC(C)C)C(=O)NCC(=O)N[C@H](C(=O)N[C@@H](CCCCN)C(=O)N[C@H](C(=O)N[C@@H](CC(C)C)C(=O)N[C@@H](Cc1c[nH]c2ccccc12)C(=O)N[C@@H](CO)C(=O)N[C@@H](C)C(=O)N[C@@H](Cc1ccc(O)cc1)C(=O)N[C@@H](CCCCN)C(=O)N[C@@H](Cc1c[nH]cn1)C(=O)N[C@@H](CCCNC(=N)N)C(=O)N[C@@H](CCCCN)C(=O)N[C@H](C(=O)N[C@H](C(N)=O)[C@@H](C)CC)[C@@H](C)O)[C@@H](C)CC)[C@@H](C)CC [L-6-C7] (Heptanoyl-LGIKILWSAYKHRKTI-NH2) | 3.1 | 3.1 | 0.22 | 1.95 | 0.8 | 6.2 | 6.2 | 80 | –
CCCCC(=O)N[C@H](CC(C)C)C(=O)NCC(=O)N[C@@H](C(=O)N[C@H](CCCCN)C(=O)N[C@@H](C(=O)N[C@H](CC(C)C)C(=O)N[C@H](Cc1c[nH]c2ccccc12)C(=O)N[C@H](CO)C(=O)N[C@H](C)C(=O)N[C@H](Cc1ccc(O)cc1)C(=O)N[C@H](CCCCN)C(=O)N[C@H](Cc1c[nH]cn1)C(=O)N[C@H](CCCNC(=N)N)C(=O)N[C@H](CCCCN)C(=O)N[C@@H](C(=O)N[C@@H](C(N)=O)[C@H](C)CC)[C@H](C)O)[C@H](C)CC)[C@H](C)CC [D-6-C5] (Pentanoyl-[dL]G[dI][dK][dI][dL][dW][dS][dA][dY][dK][dH][dR][dK][dT][dI]-NH2) | 6.2 | 3.1 | 0.12 | 13.1 | – | 3.1 | 3.1 | > 100 | MBC (A. baumannii): 3.1 µM; MIC (A. baumannii): 3.1 µM; MBC (E. cloacae): 50 µM; MIC (E. cloacae): 25 µM; MBC (E. faecium): 3.1 µM; MIC (E. faecium): 3.1 µM; MBC (K. pneumoniae): 50 µM; MIC (K. pneumoniae): 25 µM; MBC (P. aeruginosa): 50 µM; MIC (P. aeruginosa): 25 µM; S. aureus MIC, lipopeptide alone (S. aureus (ATCC 29213)): 3.1 µM; E. coli MIC, lipopeptide alone (E. coli (K-12 MG1655) [6]): 3.1 µM
